Measurements as given in the supplement of paper PMC10307832.

Key:
Test in all cases: relative viability (nuclei count vs DMSO), 5 days (fraction); higher = more cells survive
HCC-44 = tested on: HCC-44
Method in brief: (§1)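 The day after seeding in 1536-well plates, lung cancer cell lines were treated by pin tool with a single drug, or with a fixed anchor-drug dose together with five library-drug doses (not always all listed) in √10 steps. After 5 days, a combined fix-and-stain solution (final 0.05% Triton X-100, 1% formaldehyde, 1 ug/ml Hoechst) was added. Nuclei counted on 4× images gave relative viability as treated counts over vehicle counts, reported as the median of duplicate plates.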

NCI-H23 = tested on: NCI-H23
Method in brief: as §1

LCLC-103H = tested on: LCLC-103H
Method in brief: as §1

HCC-827 = tested on: HCC-827
Method in brief: as §1

A-427 = tested on: A-427
Method in brief: as §1

NCI-H441 = tested on: NCI-H441
Method in brief: as §1

EKVX = tested on: EKVX
Method in brief: as §1

NCI-H596 = tested on: NCI-H596
Method in brief: as §1

COR-L 105 = tested on: COR-L 105
Method in brief: as §1

NCI-H1437 = tested on: NCI-H1437
Method in brief: as §1

HARA = tested on: HARA
Method in brief: as §1

HCC-15 = tested on: HCC-15
Method in brief: as §1

NCI-H1975 = tested on: NCI-H1975
Method in brief: as §1

NCI-H650 = tested on: NCI-H650
Method in brief: as §1

201T = tested on: 201T
Method in brief: as §1

NCI-H838 = tested on: NCI-H838
Method in brief: as §1

NCI-H1792 = tested on: NCI-H1792
Method in brief: as §1

NCI-H1666 = tested on: NCI-H1666
Method in brief: as §1

COR-L23 = tested on: COR-L23
Method in brief: as §1

NCI-H520 = tested on: NCI-H520
Method in brief: as §1

## COc1cc(N2CCC(C(N)=O)CC2)ccc1Nc1nc(N)c(Cl)c(Nc2ccccc2S(=O)(=O)C(C)C)n1 [HG-5-88-01] + CC(C)C[C@H](NC(=O)[C@H](Cc1ccccc1)NC(=O)c1cnccn1)B(O)O [Bortezomib] (partner 0.002 µM)
HCC-44; first compound 0.04 µM
  relative viability: 0.901
HCC-44; first compound 0.1265 µM
  relative viability: 0.868
HCC-44; first compound 0.4 µM
  relative viability: 0.679
HCC-44; first compound 1.265 µM
  relative viability: 0.832
HCC-44; first compound 4 µM
  relative viability: 0.754
NCI-H23; first compound 0.04 µM
  relative viability: 0.954
NCI-H23; first compound 0.1265 µM
  relative viability: 1.02
NCI-H23; first compound 0.4 µM
  relative viability: 0.91
NCI-H23; first compound 1.265 µM
  relative viability: 1.12
NCI-H23; first compound 4 µM
  relative viability: 0.629
LCLC-103H; first compound 0.04 µM
  relative viability: 1.02
LCLC-103H; first compound 0.1265 µM
  relative viability: 0.995
LCLC-103H; first compound 0.4 µM
  relative viability: 0.913
LCLC-103H; first compound 1.265 µM
  relative viability: 1.01
LCLC-103H; first compound 4 µM
  relative viability: 1.01
HCC-827; first compound 0.04 µM
  relative viability: 1.07
HCC-827; first compound 0.1265 µM
  relative viability: 1.05
HCC-827; first compound 0.4 µM
  relative viability: 1.06
HCC-827; first compound 1.265 µM
  relative viability: 1.14
HCC-827; first compound 4 µM
  relative viability: 0.472
A-427; first compound 0.04 µM
  relative viability: 0.968
A-427; first compound 0.1265 µM
  relative viability: 0.955
A-427; first compound 0.4 µM
  relative viability: 1.01
A-427; first compound 1.265 µM
  relative viability: 1.05
A-427; first compound 4 µM
  relative viability: 0.804
NCI-H441; first compound 0.04 µM
  relative viability: 0.579
NCI-H441; first compound 0.1265 µM
  relative viability: 0.423
NCI-H441; first compound 0.4 µM
  relative viability: 0.622
NCI-H441; first compound 1.265 µM
  relative viability: 0.558
NCI-H441; first compound 4 µM
  relative viability: 0.379
EKVX; first compound 0.04 µM
  relative viability: 1.09
EKVX; first compound 0.1265 µM
  relative viability: 1.02
EKVX; first compound 0.4 µM
  relative viability: 1.02
EKVX; first compound 4 µM
  relative viability: 0.854
NCI-H596; first compound 0.04 µM
  relative viability: 1.25
NCI-H596; first compound 0.1265 µM
  relative viability: 0.948
NCI-H596; first compound 0.4 µM
  relative viability: 1
NCI-H596; first compound 1.265 µM
  relative viability: 0.964
NCI-H596; first compound 4 µM
  relative viability: 1.02
COR-L 105; first compound 0.04 µM
  relative viability: 0.875
COR-L 105; first compound 0.1265 µM
  relative viability: 0.77
COR-L 105; first compound 0.4 µM
  relative viability: 0.619
COR-L 105; first compound 1.265 µM
  relative viability: 0.375
COR-L 105; first compound 4 µM
  relative viability: 0.531
NCI-H1437; first compound 0.04 µM
  relative viability: 0.491
NCI-H1437; first compound 0.1265 µM
  relative viability: 0.477
NCI-H1437; first compound 0.4 µM
  relative viability: 0.539
NCI-H1437; first compound 1.265 µM
  relative viability: 0.401
NCI-H1437; first compound 4 µM
  relative viability: 0.263
HARA; first compound 0.04 µM
  relative viability: 1.16
HARA; first compound 0.1265 µM
  relative viability: 1.03
HARA; first compound 0.4 µM
  relative viability: 1.07
HARA; first compound 1.265 µM
  relative viability: 1.02
HARA; first compound 4 µM
  relative viability: 1.02
HCC-15; first compound 0.04 µM
  relative viability: 1
HCC-15; first compound 0.1265 µM
  relative viability: 1.09
HCC-15; first compound 0.4 µM
  relative viability: 0.966
HCC-15; first compound 1.265 µM
  relative viability: 1.02
HCC-15; first compound 4 µM
  relative viability: 0.746
NCI-H1975; first compound 0.04 µM
  relative viability: 0.349
NCI-H1975; first compound 0.1265 µM
  relative viability: 0.452
NCI-H1975; first compound 0.4 µM
  relative viability: 0.381
NCI-H1975; first compound 1.265 µM
  relative viability: 0.344
NCI-H1975; first compound 4 µM
  relative viability: 0.23
NCI-H650; first compound 0.04 µM
  relative viability: 0.844
NCI-H650; first compound 0.1265 µM
  relative viability: 0.767
NCI-H650; first compound 0.4 µM
  relative viability: 0.711
NCI-H650; first compound 1.265 µM
  relative viability: 0.815
NCI-H650; first compound 4 µM
  relative viability: 0.381
201T; first compound 0.04 µM
  relative viability: 1.12
201T; first compound 0.1265 µM
  relative viability: 1.03
201T; first compound 0.4 µM
  relative viability: 1.1
201T; first compound 1.265 µM
  relative viability: 1.06
201T; first compound 4 µM
  relative viability: 1.2
NCI-H838; first compound 0.04 µM
  relative viability: 0.818
NCI-H838; first compound 0.1265 µM
  relative viability: 0.645
NCI-H838; first compound 0.4 µM
  relative viability: 0.759
NCI-H838; first compound 1.265 µM
  relative viability: 0.702
NCI-H838; first compound 4 µM
  relative viability: 0.333
NCI-H1792; first compound 0.04 µM
  relative viability: 0.975
NCI-H1792; first compound 0.1265 µM
  relative viability: 0.929
NCI-H1792; first compound 0.4 µM
  relative viability: 0.941
NCI-H1792; first compound 1.265 µM
  relative viability: 0.817
NCI-H1792; first compound 4 µM
  relative viability: 0.958
NCI-H1666; first compound 0.04 µM
  relative viability: 0.944
NCI-H1666; first compound 0.1265 µM
  relative viability: 0.897
NCI-H1666; first compound 0.4 µM
  relative viability: 0.597
NCI-H1666; first compound 1.265 µM
  relative viability: 0.58
NCI-H1666; first compound 4 µM
  relative viability: 0.452
COR-L23; first compound 0.04 µM
  relative viability: 1.06
COR-L23; first compound 0.1265 µM
  relative viability: 1.08
COR-L23; first compound 0.4 µM
  relative viability: 0.854
COR-L23; first compound 1.265 µM
  relative viability: 0.91
COR-L23; first compound 4 µM
  relative viability: 0.896
NCI-H520; first compound 0.04 µM
  relative viability: 0.45
NCI-H520; first compound 0.1265 µM
  relative viability: 0.633
NCI-H520; first compound 0.4 µM
  relative viability: 0.304
NCI-H520; first compound 1.265 µM
  relative viability: 0.698
NCI-H520; first compound 4 µM
  relative viability: 0.546
